US20260256716A1, “COMPOSITIONS AND METHODS OF USE THEREOF” (Board of Supervisors of Louisiana State University and …, priority 2023, published 2026)
“Also recorded” adds a separate entry of the source.

Legend:
[1] = test system: ARPE-19 cells; test: ARPE-19 proliferation (DAPI cell number, fold change in growth); format: cell-based, human; settings: for cellular replication / proliferation: physiologically relevant serotonin levels, 72 h
Protocol: Specific 5-HT2A Receptor Activation via Model Phenethylamines, like R-DOI. […] ARPE-19 cells were plated in nutrient rich media, DMEM, containing 7% dialyzed FCS and then starved in DMEM media containing 0.5% dialyzed FCS. Cells were then changed to 7% dialyzed FCS DMEM media containing physiolocial relevant levels of serotonin at varying concentrations and grown for 72-hours. Cell numbers were determined through DNA staining with DAPI and fold change in growth was determined from baseline readings at 24-hours. To assess if agonists of the 5HT2A receptor could enhance cell health and proliferation specifically through the 5-HT2A receptor, the model 5-HT2A receptor agonist, R-DOI was added at either 0.1 nM or 1 nM. […] Also, included is a summary of physiological serotonin and 5-HT2A receptor agonist/antagonist outcomes on cellular proliferation. This increase in proliferation promotes the formation of a compact RPE-monolayer which is important for maintaining a healthy blood-retinal barrier and can occur with low dose administration of 5-HT2A receptor agonists.
ARPE-19 cells were plated in nutrient rich media, DMEM, containing 7% dialyzed FCS and then starved in DMEM media containing 0.5% dialyzed FCS. Cells were then changed to 7% dialyzed FCS DMEM media containing physiological relevant levels of serotonin at varying concentrations and grown for 72-hours. Cell numbers were determined through DNA staining with DAPI and fold change in growth was determined from baseline readings at 24-hours. To assess if serotonin enhances cell health and proliferation specifically through the 5-HT2A receptor, the 5-HT2A receptor antagonist, M100,907 at 10 nM was included during serotonin induction.

[2] = test system: ARPE cells; test: Blue light induced mitochondrial fragmentation in ARPE cells (mitotracker green); format: cell-based, human; settings: 100 nM; 48 hours; hyperglycemic conditions; blue light 400 nm
Protocol: ARPE cells grown under hyperglycemic conditions were plated and mock treated or treated with R-DOI or 2C-iBu at 100 nM. 48 hours post treatment, mitochondria in live cells were visualized by staining mitochondria with mitotracker green (green). Once stained, live ARPE cells were exposed to focused blue light at 400 nm and the ability of drugs to protect against blue light damage-induced mitochondrial fragmentation was assessed.

[3] = test system: A549 cells; test: Cell viability after cumene peroxide oxidative stress (Hoechst / propidium iodide); format: cell-based
Protocol: A549 cells were treated with the indicated concentrations of R-DOI (panel A) or 2C-iBu (panel B) and subsequently exposed to cumene peroxide to oxidatively stress cells. Cell viability was visualized by staining with Hoescht (Blue) to mark total cells (live plus dead) and propidium iodide (red) to mark dead cells.

[4] = test system: ARPE-19 cells; test: ATP luciferase assay in ARPE-19 cells; format: cell-based, human
[5] = test system: AMP kinase; test: AMP kinase activation in treated cells; format: cell-based; settings: low nM concentrations
[6] = test system: phosphorylated myosin light chain; test: Western blot of phosphorylated myosin light chain (MLC) in ARPE-19 cells under hyperglycemic conditions; format: cell-based, human
Protocol: A Hallmark of Age-Associated Ocular and Neurodegenerative Disorders is Cytoskeletal Alteration and Induction of CONTRACTILE Stress Fiber Formation. Expression and activation via phosphorylation of Myosin Light Chain (MLC), is a biomarker of disease development. ARPE-19 cells and ARPE-19 cells specifying 5-HT2AR knockouts were plated in nutrient rich media (DMEM; 7% FCS) overnight. Cells were fixed, permeabilized, and stained phalloidin and α-phosphorylated-Myosin light chain. Cytoskeletal elements were then visualized by fluorescent microscopy to visualize actin fiber cytoskeletal structures (phalloidin, red) and contractile phosphorylated myosin light chain (green) via fluorescent microscopy. […] ARPE-19 cells were cultured under hyperglycemic conditions in nutrient rich media (DMEM High glucose; 7% FCS) overnight either in the absence or presence of 5-HT2A receptor agonists R-DOI and 2CiBu at 10 nm or 100 nM concentrations. The relative expression of the activated disease biomarker contractile phosphorylated myosin light chain was determined using specific antibodies and western blot analysis. 5-HT2A agonists. […] Therefore, 5-HT2A agonism at low concentrations have the potential to prevent and reverse deleterious cytoskeletal events that can be induced under hyperglycemic conditions, such as in diabetics.
This can be consistent with 2C-iBu being able to regulate IOP and that 5HT2A agonists prevented edema formation and disruption of corneal architecture in a model of herpetic keratitis.

[7] = test system: ARPE-19 cells; test: Hyperglycemia induced SA-β-Gal cellular senescence in ARPE-19 cells (HPLM); format: cell-based, human
Protocol: Consistent with Retinal Deterioration by Glucose-Induced Cellular Senescence in the Diabetic Population, Hyperglycemic conditions induce increased disease promoting Cellular Senescence that is abrogated by low nM concentrations of the Representative 5-HT2A Receptor Agonist, R-DOI Returning to Base-line Homeostatic Levels. ARPE-19 cells in physiologically relevant media (HPLM; 7% FCS) were seeded overnight prior to being replaced with starvation media (HPLM 0.5% FCS) containing 10 nM R-DOI. After overnight incubation in starvation media, cells were swapped to media containing diabetic blood glucose levels (HPLM 7% FCS containing 5 mM, 10 mM, 20 mM, or 30 mM glucose) for 72-hours. After the 72-hour incubation, cells were fixed and stained for SA-β-Gal for 6-hours. Cells nuclei were then stained with DAPI for total-cell enumeration. SA-β-Gal positive cells, and total cells per frame, were quantified by microscopy. Pathological/diabetic glucose concentrations induce cellular senescence. 5-HT2A receptor agonism alleviates glucose-induced senescence at diabetic blood glucose levels. […]
Effects of specific phenethylamine 5-HT2A receptor agonists on reduction of Hyperglycemia induced Disease Promoting Cellular Senescence: Inhibition of Cell Senescence and Disease Processes are Drug and Dose Dependent. […] SA-3-Gal positive cells, and total cells per frame, were quantified by microscopy. For each 5-HT2A agonist assessed, the % of senescent cells is expressed relative to the hyperglycemic control. […]
Inhibition of Cell Senescence and Disease Processes are Drug and Dose Dependent. […] SA-β-Gal positive cells, and total cells per frame, were quantified by microscopy. For each 5-HT2A agonist assessed, the % of senescent cells is expressed relative to the hyperglycemic control. […]

[8] = test system: ARPE-19 cells; test: FACS forward scatter cell size of ARPE-19 cells; format: cell-based, human; settings: treated overnight, then 4 days in normal media
Source text: Upon initial seeding of potential 5HT2A KD cells there was a readily apparent alteration of normal ARPE cell morphology. Cells appeared flattened, extended, highly attached and enlarged. Each cell line isolate maintained this enlarged and flattened cell morphology as shown to the right and quantified below. […] This markedly altered morphology is present in cells that have begun to undergo changes related to aging, including evolving a senescent or pre-senescent phenotype. Therefore, FACS analysis of 5HT2A KD cells was performed comparing the cell size of Forward Scatter to ARPE-19 cells, treated overnight with Etoposide, an inhibitor of topoisomerase, and a known inducer of cell senescence, and then cultured for 4 days in normal media in the absence of etoposide. […] Further an increase in particles of “cell degranulation” sizing was also observed in all conditions compared to ARPE-19 WT controls.

[9] = test system: ARPE-19 cells; test: SA-β-Gal cellular senescence in ARPE-19 cells in nutrient rich media (DMEM); format: cell-based, human; settings: 10 nM in starvation media overnight, then DMEM 7% FCS 72 hours
Protocol: ARPE-19 cells in nutrient rich media (DMEM; 7% FCS) were seeded overnight prior to being replaced with starvation media (DMEM; 0.5% FCS) containing 10 nM R-DOI or 10 nM M100,907. After overnight incubation in starvation media with drug, cells were swapped to DMEM 7% FCS media for 72-hours. After the 72-hour incubation, cells were fixed and stained for SA-β-Gal for 6-hours. Cells nuclei were then stained with DAPI for total-cell enumeration. SA-β-Gal positive cells, and total cells per frame, were quantified by microscopy.

## NCCc1c[nH]c2ccc(O)cc12 [Serotonin, 5-hydroxytryptamine]
[1]
  cellular replication / proliferation: Enhances Cellular Health and Replication
[1]; listed as 5-HT
  cellular replication / proliferation: increase cellular replication; also recorded: increase ARPE-19 Proliferation
[1]; listed as serotonin
  cellular replication / proliferation: enhance cellular replication patterns; also recorded: enhance replication of cells

## COc1cc(CC(C)C)c(OC)cc1CCN [2C-iBu, 2,5-Dimethoxy-4-isobutylphenethylamine]
[2]
  blue light induced mitochondrial fragmentation/damage: Inhibit Blue Light and Oxidative Stress Induced Mitochondrial Fragmentation/Damage
[3]
  oxidative stress-induced cell death: protected cells from oxidative stress-induced cell death
[4]; 10 fold dilutions 100 nM to 0.1 nM
  ATP levels relative to Mock treated ARPE-19 cells: Increase Mitochondrial Function And ATP Production
[4]; ARPE WT cells, 24 h after administration
  production of ATP: enhanced production of ATP
[5]
  AMP kinase activation: activation of AMP kinase
[6]; ARPE-19, DMEM High glucose 7% FCS overnight, 10 nM, western blot
  hyperglycemia induced phosphorylated MLC levels: suppressed hyperglycemia induced phosphorylated MLC levels
[6]; WT ARPE-19 in media with hyperglycemic glucose (17.5 mM), low dose, not high doses
  phosphorylation of MLC: inhibited

## COc1cc(C(F)(F)F)c(OC)cc1C[C@@H](C)N [R-DOTFM]
[7]
  concentration at which disease is exacerbated: ≥ 10 nM
[7]; 1 uM to 0.1 nM, HPLM 30 mM glucose, 72 hours
  hyperglycemia induced cellular senescence relative to hyperglycemic control: enhances rather than inhibits Aging-Associated Disease Processes and Cellular Senescence

## COc1cc([C@@H]2c3cc4c(cc3[C@@H](O[C@@H]3O[C@@H]5CO[C@@H](C)O[C@H]5[C@H](O)[C@H]3O)[C@H]3COC(=O)[C@H]23)OCO4)cc(OC)c1O [etoposide]
[8]
  cell size (forward scatter): increased cell size

## COc1cccc([C@H](O)C2CCN(CCc3ccc(F)cc3)CC2)c1OC [M100,907, reference compound]
[9]
  cellular senescence (SA-β-Gal positive cells): Increases Proportions of Cellular Senescence
[1]; antagonist at 10 nM during serotonin induction
  serotonin-mediated enhanced replication: abrogated serotonin-mediated enhanced replication
